Assays:
[1] = target: Tyrosine-protein kinase JAK1 (Homo sapiens, UniProt P23458)
[2] = target: Tyrosine-protein kinase JAK2 (Homo sapiens, UniProt O60674)
[3] = target: T1, Tyrosine-protein kinase JAK3 (Homo sapiens, UniProt P52333)
T1 sequence (P52333 whole entry): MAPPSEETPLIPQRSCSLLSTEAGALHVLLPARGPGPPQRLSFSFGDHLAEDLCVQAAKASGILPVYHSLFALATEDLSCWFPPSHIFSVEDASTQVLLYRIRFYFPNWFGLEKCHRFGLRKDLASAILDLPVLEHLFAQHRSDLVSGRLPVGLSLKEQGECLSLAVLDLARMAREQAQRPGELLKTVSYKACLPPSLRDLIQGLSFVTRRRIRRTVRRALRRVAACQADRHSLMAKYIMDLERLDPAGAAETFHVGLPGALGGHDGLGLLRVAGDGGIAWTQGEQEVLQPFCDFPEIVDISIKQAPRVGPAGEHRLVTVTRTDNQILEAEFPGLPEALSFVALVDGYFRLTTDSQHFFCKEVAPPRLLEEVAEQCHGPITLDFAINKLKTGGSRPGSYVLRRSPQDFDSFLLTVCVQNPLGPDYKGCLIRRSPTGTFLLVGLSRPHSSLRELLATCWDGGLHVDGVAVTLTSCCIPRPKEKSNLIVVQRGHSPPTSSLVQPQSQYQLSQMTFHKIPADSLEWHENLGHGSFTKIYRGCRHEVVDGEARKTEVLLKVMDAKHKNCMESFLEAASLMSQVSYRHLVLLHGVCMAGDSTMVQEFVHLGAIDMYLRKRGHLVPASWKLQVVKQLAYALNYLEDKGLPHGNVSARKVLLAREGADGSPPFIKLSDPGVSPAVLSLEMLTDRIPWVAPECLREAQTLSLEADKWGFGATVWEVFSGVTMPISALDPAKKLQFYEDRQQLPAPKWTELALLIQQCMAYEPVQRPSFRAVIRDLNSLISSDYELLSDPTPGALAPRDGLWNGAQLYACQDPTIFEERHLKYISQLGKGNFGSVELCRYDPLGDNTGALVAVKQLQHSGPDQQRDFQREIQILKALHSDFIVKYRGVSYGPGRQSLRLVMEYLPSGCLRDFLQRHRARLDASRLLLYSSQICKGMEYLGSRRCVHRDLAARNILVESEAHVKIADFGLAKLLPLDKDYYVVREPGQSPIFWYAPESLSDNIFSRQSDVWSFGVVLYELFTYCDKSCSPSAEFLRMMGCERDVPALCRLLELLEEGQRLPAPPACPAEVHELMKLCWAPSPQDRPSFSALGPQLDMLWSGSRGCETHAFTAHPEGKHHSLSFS

[4] = target: Non-receptor tyrosine-protein kinase TYK2 (Homo sapiens, UniProt P29597)
Chain of Non-receptor tyrosine-protein kinase TYK2 (P29597 whole entry): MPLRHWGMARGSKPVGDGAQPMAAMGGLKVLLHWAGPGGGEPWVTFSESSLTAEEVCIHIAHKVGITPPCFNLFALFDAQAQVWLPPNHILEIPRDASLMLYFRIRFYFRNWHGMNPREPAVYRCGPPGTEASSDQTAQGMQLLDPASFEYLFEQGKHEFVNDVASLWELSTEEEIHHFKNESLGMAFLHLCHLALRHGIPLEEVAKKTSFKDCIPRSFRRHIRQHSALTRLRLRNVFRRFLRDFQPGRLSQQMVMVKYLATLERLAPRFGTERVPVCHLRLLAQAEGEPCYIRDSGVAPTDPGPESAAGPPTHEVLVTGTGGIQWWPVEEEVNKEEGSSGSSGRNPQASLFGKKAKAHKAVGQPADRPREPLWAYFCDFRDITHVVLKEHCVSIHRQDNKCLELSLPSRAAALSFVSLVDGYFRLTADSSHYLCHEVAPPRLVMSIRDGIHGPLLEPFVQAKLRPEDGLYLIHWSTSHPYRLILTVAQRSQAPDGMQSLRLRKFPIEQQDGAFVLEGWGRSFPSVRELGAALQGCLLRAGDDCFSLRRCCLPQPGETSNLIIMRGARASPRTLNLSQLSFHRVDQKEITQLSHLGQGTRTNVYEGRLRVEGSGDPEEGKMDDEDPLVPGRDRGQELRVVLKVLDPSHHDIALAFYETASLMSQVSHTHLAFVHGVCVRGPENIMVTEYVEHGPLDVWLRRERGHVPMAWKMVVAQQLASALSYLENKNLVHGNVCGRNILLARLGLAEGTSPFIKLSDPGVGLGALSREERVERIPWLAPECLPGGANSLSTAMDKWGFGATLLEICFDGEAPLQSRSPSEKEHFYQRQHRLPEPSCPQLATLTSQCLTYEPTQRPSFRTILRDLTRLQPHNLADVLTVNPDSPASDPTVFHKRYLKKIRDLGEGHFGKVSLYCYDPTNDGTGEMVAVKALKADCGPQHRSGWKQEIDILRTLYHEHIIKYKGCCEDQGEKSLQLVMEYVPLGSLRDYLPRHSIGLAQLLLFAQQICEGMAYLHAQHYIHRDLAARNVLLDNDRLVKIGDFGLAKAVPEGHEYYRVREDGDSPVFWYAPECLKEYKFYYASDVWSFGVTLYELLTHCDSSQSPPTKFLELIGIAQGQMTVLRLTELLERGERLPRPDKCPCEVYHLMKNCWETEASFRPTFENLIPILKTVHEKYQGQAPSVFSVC

Chain of Tyrosine-protein kinase JAK1 (P23458 whole entry): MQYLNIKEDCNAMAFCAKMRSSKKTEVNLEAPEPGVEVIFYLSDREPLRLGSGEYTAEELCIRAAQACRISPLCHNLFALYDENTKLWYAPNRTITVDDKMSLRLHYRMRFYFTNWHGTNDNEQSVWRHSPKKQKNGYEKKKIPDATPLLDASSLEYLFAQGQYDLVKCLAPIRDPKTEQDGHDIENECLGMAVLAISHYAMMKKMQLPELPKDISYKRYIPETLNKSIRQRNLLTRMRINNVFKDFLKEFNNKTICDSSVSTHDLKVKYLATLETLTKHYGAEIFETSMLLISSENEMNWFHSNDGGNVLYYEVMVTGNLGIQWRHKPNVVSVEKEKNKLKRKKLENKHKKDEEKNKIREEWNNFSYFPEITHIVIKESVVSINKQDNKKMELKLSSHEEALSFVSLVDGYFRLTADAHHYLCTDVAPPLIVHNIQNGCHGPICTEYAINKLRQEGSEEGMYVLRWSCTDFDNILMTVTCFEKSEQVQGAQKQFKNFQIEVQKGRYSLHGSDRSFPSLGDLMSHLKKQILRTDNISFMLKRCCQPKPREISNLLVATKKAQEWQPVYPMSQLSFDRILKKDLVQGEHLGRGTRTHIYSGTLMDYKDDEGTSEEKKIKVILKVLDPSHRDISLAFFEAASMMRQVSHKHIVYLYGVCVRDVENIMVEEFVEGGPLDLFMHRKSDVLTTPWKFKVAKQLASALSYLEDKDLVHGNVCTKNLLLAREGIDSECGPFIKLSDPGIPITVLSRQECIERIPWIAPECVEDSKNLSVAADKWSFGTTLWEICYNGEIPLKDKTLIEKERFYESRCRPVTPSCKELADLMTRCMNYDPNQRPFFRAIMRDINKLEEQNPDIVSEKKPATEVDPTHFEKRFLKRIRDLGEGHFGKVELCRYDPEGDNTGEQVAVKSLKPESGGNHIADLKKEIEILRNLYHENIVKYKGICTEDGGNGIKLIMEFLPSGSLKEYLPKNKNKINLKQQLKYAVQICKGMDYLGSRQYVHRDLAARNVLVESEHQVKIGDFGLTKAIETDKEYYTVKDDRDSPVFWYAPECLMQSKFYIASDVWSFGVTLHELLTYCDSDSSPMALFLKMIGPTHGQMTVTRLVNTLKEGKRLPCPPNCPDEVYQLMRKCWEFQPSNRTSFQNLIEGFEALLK
Chain of Tyrosine-protein kinase JAK2 (O60674 whole entry): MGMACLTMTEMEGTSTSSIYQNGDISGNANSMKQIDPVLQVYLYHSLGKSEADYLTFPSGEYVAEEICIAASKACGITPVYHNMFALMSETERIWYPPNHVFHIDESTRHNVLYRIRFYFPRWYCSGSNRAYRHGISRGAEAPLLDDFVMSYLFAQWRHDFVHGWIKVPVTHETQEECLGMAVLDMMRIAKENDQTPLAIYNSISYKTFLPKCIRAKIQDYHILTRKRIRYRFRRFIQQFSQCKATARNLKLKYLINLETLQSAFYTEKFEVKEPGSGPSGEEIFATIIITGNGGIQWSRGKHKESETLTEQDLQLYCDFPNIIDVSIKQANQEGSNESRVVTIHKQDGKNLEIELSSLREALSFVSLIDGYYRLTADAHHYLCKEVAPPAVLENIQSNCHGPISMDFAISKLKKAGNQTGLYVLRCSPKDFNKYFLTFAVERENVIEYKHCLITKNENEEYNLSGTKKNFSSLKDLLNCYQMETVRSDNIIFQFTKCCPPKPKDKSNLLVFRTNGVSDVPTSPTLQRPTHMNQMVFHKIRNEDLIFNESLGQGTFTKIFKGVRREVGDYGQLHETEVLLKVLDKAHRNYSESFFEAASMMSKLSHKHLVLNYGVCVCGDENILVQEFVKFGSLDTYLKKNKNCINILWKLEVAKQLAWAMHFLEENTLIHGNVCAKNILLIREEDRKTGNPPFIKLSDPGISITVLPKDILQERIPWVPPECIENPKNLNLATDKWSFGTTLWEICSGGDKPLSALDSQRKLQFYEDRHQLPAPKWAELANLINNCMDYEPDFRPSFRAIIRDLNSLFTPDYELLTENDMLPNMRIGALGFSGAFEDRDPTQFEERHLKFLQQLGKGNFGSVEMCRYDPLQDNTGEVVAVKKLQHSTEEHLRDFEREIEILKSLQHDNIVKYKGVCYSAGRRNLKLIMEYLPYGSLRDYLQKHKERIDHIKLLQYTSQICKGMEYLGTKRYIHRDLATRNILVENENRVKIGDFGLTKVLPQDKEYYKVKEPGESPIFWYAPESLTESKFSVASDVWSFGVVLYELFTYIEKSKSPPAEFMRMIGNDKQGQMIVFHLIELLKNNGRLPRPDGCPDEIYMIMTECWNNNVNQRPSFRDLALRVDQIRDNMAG

Row | Structure (SMILES) | IC50 [1] | IC50 [2] | IC50 [3] | IC50 [4]
1 | Nc1nc(Nc2ccc(C(=O)O)cc2)nn1C(=O)c1c(F)cccc1F | 45 nM | 2110 nM | 1470 nM | 42 nM
2 | CCOC(=O)c1cccc(Nc2nnc(N)[nH]2)c1 | – | – | – | > 10000 nM
3 | COC(=O)c1ccc(Nc2nc(N)n(C(=O)c3c(F)cccc3F)n2)cc1 | 500 nM | > 10000 nM | > 10000 nM | 760 nM
4 | Nc1nc(Nc2cccc(C(=O)O)c2)nn1C(=O)c1c(F)cccc1F | 610 nM | > 10000 nM | > 10000 nM | 690 nM
5 | CCOC(=O)c1cccc(Nc2nc(N)n(C(=O)c3ccccc3)n2)c1 | – | – | – | > 10000 nM
6 | Nc1nc(Nc2cccnc2)nn1C(=O)c1c(F)cccc1F | 160 nM | > 10000 nM | 5000 nM | 300 nM
7 | CCOC(=O)c1cccc(Nc2nc(N)nn2C(=O)c2c(F)cccc2F)c1 | – | – | – | > 10000 nM
8 | CN(C)c1ccc(Nc2nc(N)n(C(=O)c3c(F)cccc3F)n2)cc1 | 80 nM | 2500 nM | 850 nM | 70 nM
9 | Nc1nc(Nc2cccc(S(N)(=O)=O)c2)nn1C(=O)c1c(F)cccc1F | 19 nM | 2500 nM | 1250 nM | 70 nM
10 | CN(C)c1cccc(Nc2nc(N)n(C(=O)c3c(F)cccc3F)n2)c1 | 39 nM | 5000 nM | 2000 nM | 70 nM
11 | CCOC(=O)c1cccc(Nc2nc(N)n(C(=O)c3ccco3)n2)c1 | – | – | – | > 10000 nM
12 | CCOC(=O)c1cccc(Nc2nc(N)n(C(=O)c3ccc(C(F)(F)F)cc3)n2)c1 | – | – | – | > 10000 nM
13 | CCOC(=O)c1cccc(Nc2nc(N)n(C(=O)c3ccccc3F)n2)c1 | ≥ 10000 nM | > 10000 nM | > 10000 nM | 6040 nM
14 | Nc1nc(Nc2ccccc2)nn1C(=O)c1c(F)cccc1F | 230 nM | ≥ 10000 nM | 3250 nM | 360 nM
15 | CCOC(=O)c1cccc(Nc2nc(N)n(C(=O)c3ccc(N(C)C)cc3)n2)c1 | – | – | – | > 10000 nM
16 | CCOC(=O)c1cccc(Nc2nc(N)n(C(=O)c3c(F)cccc3F)n2)c1 | 990 nM | > 10000 nM | > 10000 nM | 1720 nM

From ChEMBL document CHEMBL1287810, “Diamino-1,2,4-triazole derivatives are selective inhibitors of TYK2 and JAK1 over JAK2 and JAK3” (Bioorg Med Chem Lett, 2010)
